Reference: patent publication US12527776B2, “Treatment of ciliopathies using inhibitors of glucosylceramide synthase (GCS)” (GENZYME CORPORATION, priority 2019, dated 2026)

Columns and labels:
Assay type in all cases: in vivo, human
[1] = Phase 1 Study 1 Part 1: ascending single-dose pharmacokinetics in healthy volunteers
Source text: Compound 2 is also known as venglustat.
(§1) Study 1 was a 2-part single-center trial in healthy adult male volunteers.
Part 1 of the study enrolled and randomized 55 healthy men (placebo, n=14; 2-, 5-, 15, 25-, 50, and 100-mg doses, n=6 each; 150-mg dose, n=5). Eight healthy men participated in Part 2. […]

[2] = Phase 1 Study 1 Part 2: PK with and without a high-fat meal; settings: 5 mg single oral dose
Source text: as §1
Part 1 of the study enrolled and randomized 55 healthy men (placebo, n=14; 2-, 5-, 15, 25-, 50, and 100-mg doses, n=6 each; 150-mg dose, n=5). Eight healthy men participated in Part 2.
After a 7-day washout period, participants were crossed over to the other condition.

[3] = tested on: plasma GL-1, GL-3, and GM3 concentrations; experiment: Phase 1 Study 2: pharmacodynamic endpoints (plasma GL-1, GL-3, GM3)
Experimental: The study enrolled and randomized 36 healthy adults (19 men and 17 women) (n=9 each to group).
Pharmacodynamic endpoints (plasma GL-1, GL-3, and GM3 concentrations) were assessed on Days 1-5, 8, 11, 13, and 14, at 0 hours […]; and on Day 15, at 24 hours after the Day 14 dose.

[4] = Phase 1 studies: safety and tolerability; settings: multiple ascending dose study, vs placebo, any dose
Experimental: In all studies, safety profile was assessed by monitoring treatment-emergent adverse events (TEAEs) through 10 days after last dose of study medication, including serious adverse events [SAEs]), ECG monitoring, laboratory values, and physical examinations.

[5] = across the 3 dose groups (5, 10, 20 mg once daily)

CL/F, Geometric mean ([1]; single oral dose 2 mg): 6.3 L/h | CL/F, Mean ([1]; single oral dose 2 mg): 6.43 L/h | CL/F, Geometric mean ([1]; single oral dose 5 mg): 5.8 L/h | CL/F, Mean ([1]; single oral dose 5 mg): 5.86 L/h | CL/F, Geometric mean ([1]; single oral dose 15 mg): 5.6 L/h | CL/F, Mean ([1]; single oral dose 15 mg): 5.85 L/h | CL/F, Geometric mean ([1]; single oral dose 25 mg): 5.0 L/h | CL/F, Mean ([1]; single oral dose 25 mg): 5.18 L/h | CL/F, Geometric mean ([1]; single oral dose 50 mg): 5.5 L/h | CL/F, Mean ([1]; single oral dose 50 mg): 5.75 L/h | CL/F, Geometric mean ([1]; single oral dose 100 mg): 5.3 L/h | CL/F, Mean ([1]; single oral dose 100 mg): 5.38 L/h | CL/F, Geometric mean ([1]; single oral dose 150 mg): 5.6 L/h | CL/F, Mean ([1]; single oral dose 150 mg): 5.80 L/h | median time of maximal plasma concentration (Cmax) ([1]; single oral doses of 2 to 150 mg): 3 to 5.5 h | effect of high-fat meal on exposure compared with fasting [2]: no effect
Structure (SMILES): CC(C)(NC(=O)O[C@@H]1CN2CCC1CC2)c1csc(-c2ccc(F)cc2)n1 [Compound 2, (S)-quinuclidin-3-yl 2-(2-(4-fluorophenyl)thiazol-4-yl)propan-2-ylcarbamate]
Mean estimated plasma GL-1 reductions from baseline attributable to Ctrough ([3]; 5 mg group, Ctrough 19.0 ng/mL): 67.0% | Mean estimated plasma GL-1 reductions from baseline attributable to Ctrough ([3]; 10 mg group, Ctrough 47.5 ng/mL): 74.4% | Mean estimated plasma GL-1 reductions from baseline attributable to Ctrough ([3]; 20 mg group, Ctrough 69.9 ng/mL): 76.3% | subjects with GL-1 below LLOQ ([3]; Day 15, 5 mg group (n=9)): 3 subjects | subjects with GL-3 below LLOQ ([3]; Day 15, 5 mg group (n=9)): 9 subjects | Mean calculated GL-1 reductions from baseline ([3]; Day 15, 5 mg once daily): 41.9% | subjects with GL-1 below LLOQ ([3]; Day 15, 10 mg group (n=9)): 5 subjects | subjects with GL-3 below LLOQ ([3]; Day 15, 10 mg group (n=9)): 7 subjects | subjects with GM3 below LLOQ ([3]; Day 15, 10 mg group (n=9)): 1 subjects | Mean calculated GL-1 reductions from baseline ([3]; Day 15, 10 mg once daily): 69.6% | subjects with GL-1 below LLOQ ([3]; Day 15, 20 mg group (n=9)): 9 subjects | subjects with GL-3 below LLOQ ([3]; Day 15, 20 mg group (n=9)): 9 subjects | subjects with GM3 below LLOQ ([3]; Day 15, 20 mg group (n=9)): 2 subjects | Mean calculated GL-1 reductions from baseline ([3]; Day 15, 20 mg once daily): 74.6% | plasma GL-1 levels vs baseline [3, 5]: decreased from baseline time- and dose-dependently | plasma GM3 levels vs baseline [3, 5]: decreased from baseline time- and dose-dependently | Day on which maximal sustained GM3 decreases started ([3]; all dose groups): 13 days | ECG parameters [4]: no ECG parameters changed statistically significantly
